Assay results published in PubChem BioAssay AID248 (DTP/NCI, 2004).
Toxic doses and inconclusive results are not listed.

Test system: L1210 leukemia ip in BDF1 mice, survival T/C
Assay: NCI In Vivo Anticancer Drug Screen. Data for tumor model L1210 Leukemia (intraperitoneal) in B6D2F1 (BDF1) mice
Conditions: higher = longer survival
Method in brief: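 Ratio derived from survival: compound-dosed mice over vehicle-dosed mice, all bearing a transplantable tumor.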

[1] = endpoint: mean survival time, dose: 100.0 mg/kg/injection, schedule: Q01DX001 (ip), vehicle: carboxymethylcellulose (CMC)
[2] = endpoint: mean survival time, dose: 200.0 mg/kg/injection, schedule: Q01DX001 (ip), vehicle: carboxymethylcellulose (CMC)
[3] = endpoint: mean survival time, dose: 400.0 mg/kg/injection, schedule: Q01DX001 (ip), vehicle: saline
[4] = endpoint: mean survival time, dose: 50.0 mg/kg/injection, schedule: Q01DX009 (ip), vehicle: saline with Tween-80
[5] = endpoint: mean survival time, dose: 100.0 mg/kg/injection, schedule: Q01DX009 (ip), vehicle: saline with Tween-80
[6] = endpoint: mean survival time, dose: 200.0 mg/kg/injection, schedule: Q01DX009 (ip), vehicle: saline with Tween-80
[7] = endpoint: mean survival time, dose: 100.0 mg/kg/injection, schedule: Q01DX009 (ip), vehicle: Klucel (hydroxypropylcellulose) (HPC)
[8] = endpoint: mean survival time, dose: 200.0 mg/kg/injection, schedule: Q01DX009 (ip), vehicle: Klucel (hydroxypropylcellulose) (HPC)
[9] = endpoint: mean survival time, dose: 100.0 mg/kg/injection, schedule: Q04DX003 (ip), vehicle: saline with Tween-80
[10] = endpoint: mean survival time, dose: 200.0 mg/kg/injection, schedule: Q04DX003 (ip), vehicle: saline with Tween-80

FC(F)(F)c1cc(CN(CCCl)CCCl)cc(C(F)(F)F)c1
T/C (endpoint: mean survival time, dose: 2.4 mg/kg/injection, schedule: Q01DX009 (ip), vehicle: saline): 97 % of control | T/C (endpoint: mean survival time, dose: 3.6 mg/kg/injection, schedule: Q01DX009 (ip), vehicle: saline): 98 % of control | T/C (endpoint: mean survival time, dose: 8.2 mg/kg/injection, schedule: Q01DX009 (ip), vehicle: saline): 108 % of control | T/C (endpoint: mean survival time, dose: 42.0 mg/kg/injection, schedule: Q01DX009 (ip), vehicle: other): 97 % of control | T/C (endpoint: mean survival time, dose: 42.0 mg/kg/injection, schedule: Q01DX015 (ip), vehicle: carboxymethylcellulose (CMC)): 104 % of control | T/C (endpoint: mean survival time, dose: 50.0 mg/kg/injection, schedule: Q01DX001 (ip), vehicle: carboxymethylcellulose (CMC)): 111 % of control | T/C (endpoint: mean survival time, dose: 72.0 mg/kg/injection, schedule: Q01DX009 (ip), vehicle: other): 98 % of control | T/C (endpoint: mean survival time, dose: 72.0 mg/kg/injection, schedule: Q01DX015 (ip), vehicle: carboxymethylcellulose (CMC)): 116 % of control | T/C [1]: 108 % of control | T/C (endpoint: mean survival time, dose: 120.0 mg/kg/injection, schedule: Q01DX015 (ip), vehicle: carboxymethylcellulose (CMC)): 116 % of control | T/C (endpoint: mean survival time, dose: 176.0 mg/kg/injection, schedule: Q01DX001 (ip), vehicle: other): 100 % of control | T/C (endpoint: mean survival time, dose: 178.0 mg/kg/injection, schedule: Q01DX001 (ip), vehicle: saline): 103 % of control | T/C (endpoint: mean survival time, dose: 178.0 mg/kg/injection, schedule: Q04DX003 (ip), vehicle: other): 86 % of control | T/C [2]: 111 % of control | T/C (endpoint: mean survival time, dose: 264.0 mg/kg/injection, schedule: Q01DX001 (ip), vehicle: other): 107 % of control | T/C (endpoint: mean survival time, dose: 267.0 mg/kg/injection, schedule: Q01DX001 (ip), vehicle: saline): 116 % of control | T/C (endpoint: mean survival time, dose: 400.0 mg/kg/injection, schedule: Q01DX001 (ip), vehicle: other): 105 % of control | T/C [3]: 121 % of control | T/C (endpoint: mean survival time, dose: 600.0 mg/kg/injection, schedule: Q01DX001 (ip), vehicle: saline): 152 % of control

COC1OCC(OCc2ccccc2)C(OCc2ccccc2)C1OCc1ccccc1 (configuration not stated)
T/C [1]: 118 % of control | T/C [2]: 98 % of control | T/C (endpoint: mean survival time, dose: 400.0 mg/kg/injection, schedule: Q01DX001 (ip), vehicle: carboxymethylcellulose (CMC)): 96 % of control

COc1ccccc1N=Nc1cc(C)c(C)cc1O
T/C [4]: 106 % of control | T/C [5]: 103 % of control | T/C [6]: 95 % of control

CN(Cc1ccccc1Cl)C(=O)Nc1ccccc1
T/C [7]: 101 % of control | T/C [8]: 106 % of control | T/C (endpoint: mean survival time, dose: 400.0 mg/kg/injection, schedule: Q01DX009 (ip), vehicle: Klucel (hydroxypropylcellulose) (HPC)): 101 % of control

CCCCN=C(NC(=S)Nc1ccc(Cl)cc1)SCC
T/C (endpoint: mean survival time, dose: 100.0 mg/kg/injection, schedule: Q04DX002 (ip), vehicle: saline with Tween-80): 95 % of control | T/C (endpoint: mean survival time, dose: 200.0 mg/kg/injection, schedule: Q04DX002 (ip), vehicle: saline with Tween-80): 92 % of control | T/C (endpoint: mean survival time, dose: 400.0 mg/kg/injection, schedule: Q04DX002 (ip), vehicle: saline with Tween-80): 95 % of control

COc1ccc(C2c3cc4c(c(OC)c3CC3OCC(=O)C32)OCO4)cc1OC (configuration not stated)
T/C (endpoint: mean survival time, dose: 12.5 mg/kg/injection, schedule: Q01DX009 (ip), vehicle: Klucel (hydroxypropylcellulose) (HPC)): 110 % of control | T/C (endpoint: mean survival time, dose: 25.0 mg/kg/injection, schedule: Q01DX009 (ip), vehicle: Klucel (hydroxypropylcellulose) (HPC)): 110 % of control | T/C (endpoint: mean survival time, dose: 50.0 mg/kg/injection, schedule: Q01DX009 (ip), vehicle: Klucel (hydroxypropylcellulose) (HPC)): 123 % of control | T/C (endpoint: mean survival time, dose: 50.0 mg/kg/injection, schedule: Q04DX003 (ip), vehicle: saline): 110 % of control | T/C (endpoint: mean survival time, dose: 75.0 mg/kg/injection, schedule: Q01DX001 (ip), vehicle: Klucel (hydroxypropylcellulose) (HPC)): 106 % of control | T/C [7]: 121 % of control | T/C (endpoint: mean survival time, dose: 100.0 mg/kg/injection, schedule: Q04DX003 (ip), vehicle: saline): 116 % of control | T/C (endpoint: mean survival time, dose: 150.0 mg/kg/injection, schedule: Q01DX001 (ip), vehicle: Klucel (hydroxypropylcellulose) (HPC)): 112 % of control | T/C [8]: 101 % of control | T/C (endpoint: mean survival time, dose: 200.0 mg/kg/injection, schedule: Q04DX003 (ip), vehicle: saline): 116 % of control | T/C (endpoint: mean survival time, dose: 300.0 mg/kg/injection, schedule: Q01DX001 (ip), vehicle: Klucel (hydroxypropylcellulose) (HPC)): 104 % of control | T/C (endpoint: mean survival time, dose: 400.0 mg/kg/injection, schedule: Q04DX003 (ip), vehicle: saline): 110 % of control | T/C (endpoint: mean survival time, dose: 600.0 mg/kg/injection, schedule: Q01DX001 (ip), vehicle: Klucel (hydroxypropylcellulose) (HPC)): 115 % of control | T/C (endpoint: mean survival time, dose: 800.0 mg/kg/injection, schedule: Q04DX003 (ip), vehicle: saline): 118 % of control | T/C (endpoint: mean survival time, dose: 1200.0 mg/kg/injection, schedule: Q01DX001 (ip), vehicle: Klucel (hydroxypropylcellulose) (HPC)): 118 % of control | T/C (endpoint: median survival time, dose: 12.5 mg/kg/injection, schedule: Q01DX009 (ip), vehicle: Klucel (hydroxypropylcellulose) (HPC)): 105 % of control | T/C (endpoint: median survival time, dose: 25.0 mg/kg/injection, schedule: Q01DX009 (ip), vehicle: Klucel (hydroxypropylcellulose) (HPC)): 100 % of control | T/C (endpoint: median survival time, dose: 50.0 mg/kg/injection, schedule: Q01DX009 (ip), vehicle: Klucel (hydroxypropylcellulose) (HPC)): 111 % of control | T/C (endpoint: median survival time, dose: 100.0 mg/kg/injection, schedule: Q01DX009 (ip), vehicle: Klucel (hydroxypropylcellulose) (HPC)): 116 % of control

Cc1nc(OCc2ccccc2)c(C(=O)OCc2ccccc2)nc1C
T/C [5]: 103 % of control | T/C [9]: 101 % of control | T/C [6]: 97 % of control | T/C [10]: 102 % of control | T/C (endpoint: mean survival time, dose: 400.0 mg/kg/injection, schedule: Q01DX009 (ip), vehicle: saline with Tween-80): 101 % of control | T/C (endpoint: mean survival time, dose: 400.0 mg/kg/injection, schedule: Q04DX003 (ip), vehicle: saline with Tween-80): 98 % of control

CCN(CC)CC#CCN(CC)CC
T/C [4]: 92 % of control | T/C [5]: 97 % of control | T/C [9]: 102 % of control | T/C [10]: 90 % of control

COc1ccc(Cc2nc3ccc(Cl)cc3[nH]2)cc1
T/C (endpoint: mean survival time, dose: 100.0 mg/kg/injection, schedule: Q04DX003 (ip), vehicle: other): 101 % of control | T/C (endpoint: mean survival time, dose: 200.0 mg/kg/injection, schedule: Q04DX003 (ip), vehicle: other): 98 % of control | T/C (endpoint: mean survival time, dose: 400.0 mg/kg/injection, schedule: Q04DX003 (ip), vehicle: other): 98 % of control

CCOC(=O)c1c[nH]c(=O)n(-c2ccccc2)c1=O
T/C (endpoint: mean survival time, dose: 100.0 mg/kg/injection, schedule: Q04DX003 (ip), vehicle: Klucel (hydroxypropylcellulose) (HPC)): 109 % of control | T/C (endpoint: mean survival time, dose: 200.0 mg/kg/injection, schedule: Q04DX003 (ip), vehicle: Klucel (hydroxypropylcellulose) (HPC)): 92 % of control | T/C (endpoint: mean survival time, dose: 400.0 mg/kg/injection, schedule: Q04DX003 (ip), vehicle: Klucel (hydroxypropylcellulose) (HPC)): 106 % of control

Oc1cccnc1I
T/C (endpoint: mean survival time, dose: 50.0 mg/kg/injection, schedule: Q01DX001 (ip), vehicle: saline): 102 % of control | T/C (endpoint: mean survival time, dose: 100.0 mg/kg/injection, schedule: Q01DX001 (ip), vehicle: saline): 98 % of control | T/C (endpoint: mean survival time, dose: 200.0 mg/kg/injection, schedule: Q01DX001 (ip), vehicle: saline): 98 % of control | T/C [3]: 102 % of control

CCCCS(=O)(=O)CS(=O)(=O)CC
T/C (endpoint: mean survival time, dose: 100.0 mg/kg/injection, schedule: Q01DX001 (ip), vehicle: saline with Tween-80): 98 % of control | T/C (endpoint: mean survival time, dose: 200.0 mg/kg/injection, schedule: Q01DX001 (ip), vehicle: saline with Tween-80): 91 % of control | T/C (endpoint: mean survival time, dose: 400.0 mg/kg/injection, schedule: Q01DX001 (ip), vehicle: saline with Tween-80): 105 % of control

CC[C@H](/C=C/[C@@H](C)[C@H]1CC[C@H]2[C@@H]3CC=C4C[C@@H](OC(=O)/C=C\C(=O)O)CC[C@]4(C)[C@H]3CC[C@]12C)C(C)C
T/C (endpoint: mean survival time, dose: 12.5 mg/kg/injection, schedule: Q01DX009 (ip), vehicle: water): 96 % of control | T/C (endpoint: mean survival time, dose: 25.0 mg/kg/injection, schedule: Q01DX009 (ip), vehicle: water): 86 % of control | T/C (endpoint: mean survival time, dose: 25.0 mg/kg/injection, schedule: Q04DX003 (ip), vehicle: other): 105 % of control | T/C (endpoint: mean survival time, dose: 50.0 mg/kg/injection, schedule: Q04DX003 (ip), vehicle: other): 92 % of control

O=[N+]([O-])c1c(Cl)sc(Cl)c1[N+](=O)[O-]
T/C (endpoint: mean survival time, dose: 3.13 mg/kg/injection, schedule: Q01DX009 (ip), vehicle: saline sonified): 98 % of control | T/C (endpoint: mean survival time, dose: 6.25 mg/kg/injection, schedule: Q01DX009 (ip), vehicle: saline sonified): 100 % of control | T/C (endpoint: mean survival time, dose: 6.25 mg/kg/injection, schedule: Q04DX003 (ip), vehicle: Klucel (hydroxypropylcellulose) (HPC)): 86 % of control | T/C (endpoint: mean survival time, dose: 12.5 mg/kg/injection, schedule: Q01DX009 (ip), vehicle: saline sonified): 101 % of control | T/C (endpoint: mean survival time, dose: 12.5 mg/kg/injection, schedule: Q04DX003 (ip), vehicle: Klucel (hydroxypropylcellulose) (HPC)): 86 % of control
